Measured values published in US6831190B1, “Guanidinomethyl cyclohexane carboxylic acid ester derivatives” (Teikoku Chemical Industries Co., Ltd., priority 1994, dated 2004).

Legend:
Assay type in all cases: cell-based
[1] = system: Helicobacter pylori ATCC 43504; experiment: MIC, agar plating dilution (standard method of Japanese Chemotherapy Academy); details: Objected Strain 1: Helicobacter pylori ATCC 43504
Method: (§1) 1. Minimum Inhibitory Concentration (MIC) was measured in accordance with the standard method of Japanese Chemotherapy Academy (Chemotherapy, 29: 76-79, 1981). Sensitivity was measured with an agar plating dilution using Brain-Heart Infusion agar (Difco Co.) which was added 0.1% of cyclodextrin. […] of the solutions of the compounds which were obtained in examples of the present invention was prepared by dissolving in dimethylsulfoxide. […] Each of 1 ml of those prepared solutions was dispensed in share, after sterilization, 9 ml of sensitivity measuring medium which is kept at 50° C. was added to each, and they were sufficiently mixed. The mixture was used as a plate for measuring sensitivity. Brain Heart Infusion agar medium (Difco Co.), which was added 0.1% of cyclodextrin, was used as bacteria growing medium, and was cultured under microair at 37° C. for three days, and the number of bacteria thereof was adjusted to about 106/ml. This was used as a bacterial solution for inoculation. The medium was painted in each square about 2 cm with nichromic line loop. The medium was cultured under microair for three days at 37° C.

[2] = system: Helicobacter pylori ATCC 43629; experiment: as above; details: Objected Strain 2: Helicobacter pylori ATCC 43629
Method: as §1

[3] = system: Escherichia coli NIH JC-2; experiment: MIC, standard method of Japanese Chemotherapy Academy; details: Objected Strain 3: Escherichia coli NIH JC-2
Method: 1. Minimum Inhibitory Concentration (MIC) was measured in accordance with the standard method of Japanese Chemotherapy Academy (Chemotherapy, 29: 76-79, 1981).

[4] = system: Helicobacter pylori No. 1; experiment: MIC, agar plating dilution, clinical segregation strain; details: Strain 4: Helicobacter pylori No. 1
Method: (§2) Minimum Inhibitory Concentration (MIC) was measured in accordance with the standard method of Japanese Chemotherapy Academy (Chemotherapy, 29: 76-79, 1981). Sensitivity was measured with an agar plating dilution using Brain-Heart Infusion agar (Difco Co.) which was added 0.1% of cyclodextrin. […] of the solutions of the compounds which were obtained in examples of the present invention was prepared by dissolving in dimethylsulfoxide. […] Each of 1 ml of those prepared solutions was dispensed in share, after sterilization, 9 ml of sensitivity measuring medium which is kept at 50° C. was added to each, and they were sufficiently mixed. The mixture was used as a plate for measuring sensitivity. Brain Heart Infusion agar medium (Difco Co.), which was added 0.1% of cyclodextrin, was used as bacteria growing medium, and was cultured under microair at 37° C. for three days, and the number of bacteria thereof was adjusted to about 106/ml. This was used as a bacterial solution for inoculation. The medium was painted in each square about 2 cm with nichromic line loop. The medium was cultured under microair for three days at 37° C. […] The each result is shown at Table 4.

[5] = system: Helicobacter pylori No. 2; experiment: as above; details: Strain 5: Helicobacter pylori No. 2
Method: as §2

[6] = system: Helicobacter pylori No. 3; experiment: as above; details: Strain 6: Helicobacter pylori No. 3
Method: as §2

[7] = system: Helicobacter pylori No. 4; experiment: as above; details: Strain 7: Helicobacter pylori No. 4
Method: as §2

Row | Structure (SMILES) | MIC [1] [µg/mL] | MIC [2] [µg/mL] | MIC [3] [µg/mL] | MIC [4] [µg/mL] | MIC [5] [µg/mL] | MIC [6] [µg/mL] | MIC [7] [µg/mL]
1 | Cl.N=C(N)NC[C@H]1CC[C@H](C(=O)Oc2ccc(-c3ccccc3)cc2)CC1 [Compound 1, trans-4-guanidinomethyl cyclohexane carboxylic acid (4-phenylphenylester)hydrochloride, reference compound] | 3.13 | 0.78 | >25 | 0.39 | 1.56 | 0.39 | 0.78
2 | CC(C)OC(=O)c1ccc(-c2ccc(OC(=O)[C@H]3CC[C@H](CNC(=N)N)CC3)cc2)cc1.Cl [Example 20, trans-4-guanidinomethyl cyclohexane carboxylic acid [4-(4-isopropyloxycarbonyl)phenylphenylester].hydrochloride] | 0.78 | 0.78 | >25 | 0.39 | 1.56 | 0.39 | 0.78
3 | Cl.N=C(N)NC[C@H]1CC[C@H](C(=O)Oc2ccc(OCc3ccccc3)cc2)CC1 [Example 37, trans-4-guanidinomethyl cyclohexane carboxylic acid (4-benzyloxyphenylester).hydrochloride] | 12.5 | 3.13 | >25 | – | – | – | –
4 | CS(=O)(=O)O.N=C(N)NC[C@H]1CC[C@H](C(=O)Oc2c(C(=O)OCc3ccc(F)cc3)cc(Br)cc2-c2ccccc2)CC1 [Example 11, trans-4-guanidinomethyl cyclohexane carboxylic acid [4-bromo-2-(4-fluorobenzyloxycarbonyl)-6-phenylphenylester].methanosulforate] | 6.25 | 6.25 | >25 | – | – | – | –
5 | Cl.N=C(N)NC[C@H]1CC[C@H](C(=O)Oc2ccc(-c3ccc(C(=O)OCCCc4ccccc4)cc3)cc2)CC1 [Example 39, trans-4-guanidinomethyl cyclohexane carboxylic acid[4-[4-(3-phenylpropyloxycarbonyl)phenyl]phenylester].hydrochloride] | 0.39 | 0.78 | >25 | 0.39 | 0.78 | 0.20 | 0.39
6 | Cl.N=C(N)NC[C@H]1CC[C@H](C(=O)Oc2ccc(Cc3ccccc3)cc2)CC1 [Example 33, trans-4-guanidinomethyl cyclohexane carboxylic acid (4-benzylphenylester).hydrochloride] | 12.5 | 12.5 | >25 | – | – | – | –
7 | Cl.N=C(N)NC[C@H]1CC[C@H](C(=O)Oc2ccc(-c3ccc(C(=O)OCCCOc4ccc(F)cc4)cc3)cc2)CC1 [Example 40, trans-4-guanidinomethyl cyclohexane carboxylic acid[4-[4-[3-(4-fluorophenyloxy)propyloxycarbonyl]phenyl]phenylester].hydrochloride] | 0.20 | 0.39 | >25 | 0.20 | 0.78 | 0.10 | 0.39
8 | Cl.N=C(N)NC[C@H]1CC[C@H](C(=O)Oc2c(Cl)cc(-c3ccccc3)cc2Cl)CC1 [Example 13, trans-4-guanidinomethyl cyclohexane carboxylic acid (2,6-dichloro-4-phenylphenylester).hydrochloride] | 12.5 | 12.5 | >25 | – | – | – | –
9 | CS(=O)(=O)O.N=C(N)NC[C@H]1CC[C@H](C(=O)Oc2c(C(=O)OCc3ccc(F)cc3)cccc2-c2ccccc2)CC1 [Example 10, trans-4-guanidinomethyl cyclohexane carboxylic acid [2-(4-fluorobenzyloxycarbonyl)-6-phenylphenylester].methansulfonate] | 6.25 | 6.25 | >25 | – | – | – | –
10 | CCOC(=O)c1ccc(-c2ccc(OC(=O)[C@H]3CC[C@H](CNC(=N)N)CC3)cc2)cc1.Cl [Example 2, trans-4-guanidinomethyl cyclohexane carboxylic acid [4-(4-ethoxycarbonylphenyl)phenylester].hydrochloride] | 1.56 | 0.78 | >25 | 0.39 | 1.56 | 0.39 | 0.78
11 | Cl.N=C(N)NC[C@H]1CC[C@H](C(=O)Oc2ccc(-c3ccc([N+](=O)[O-])cc3)cc2)CC1 [Example 22, trans-4-guanidinomethyl cyclohexane carboxylic acid [4-(4-nitrophenyl)phenylester].hydrochloride] | 1.56 | 3.13 | >25 | – | – | – | –
12 | Cl.N=C(N)NC[C@H]1CC[C@H](C(=O)Oc2ccc(C3CCCCC3)cc2)CC1 [Example 32, trans-4-guanidinomethyl cyclohexane carboxylic acid (4-cyclohexyphenylester).hydrochloride] | 3.13 | 0.78 | >25 | – | – | – | –
13 | Cl.N=C(N)NC[C@H]1CC[C@H](C(=O)Oc2cccc3ccccc23)CC1 [Compound 3, trans-4-guanidinomethyl cyclohexane carboxylic acid (1-naphthylester)hydrochloride, reference compound] | >25 | >25 | >25 | – | – | – | –
14 | COc1ccc(-c2ccc(OC(=O)[C@H]3CC[C@H](CNC(=N)N)CC3)cc2)cc1.Cl [Example 5, trans-4-guanidinomethyl cyclohexane carboxylic acid [4-(4-methoxyphenyl)phenylester].hydrochloride] | 3.13 | 1.56 | >25 | – | – | – | –
15 | Cl.N=C(N)NC[C@H]1CC[C@H](C(=O)Oc2ccc3ccccc3c2)CC1 [Compound 4, trans-4-guanidinomethyl cyclohexane carboxylic acid (2-naphthylester)hydrochloride, reference compound] | 25 | 25 | >25 | – | – | – | –
16 | Cl.N=C(N)NC[C@H]1CC[C@H](C(=O)Oc2ccc(-c3ccccc3)cc2Cl)CC1 [Example 6, trans-4-guanidinomethyl cyclohexane carboxylic acid (2-chloro-4-phenylphenylester).hydrochloride] | 6.25 | 1.56 | >25 | – | – | – | –
17 | CC(C)(c1ccccc1)c1ccc(OC(=O)[C@H]2CC[C@H](CNC(=N)N)CC2)cc1.Cl [Example 34, trans-4-guanidinomethyl cyclohexane carboxylic acid[4-(1-methyl-1-phenylethyl)phenylester].hydrochloride] | 25 | 25 | >25 | – | – | – | –
18 | Cl.N=C(N)NC[C@H]1CC[C@H](C(=O)Oc2c(C(=O)OCc3ccccc3)cccc2-c2ccccc2)CC1 [Example 9, trans-4-guanidinomethyl cyclohexane carboxylic acid (2-benzyloxycarbonyl-6-phenylphenylester).hydrochloride] | 6.25 | 3.13 | >25 | – | – | – | –
19 | Cl.N=C(N)NC[C@H]1CC[C@H](C(=O)Oc2ccc(-c3ccc(F)cc3)cc2)CC1 [Example 27, trans-4-guanidinomethyl cyclohexane carboxylic acid[4-(4-fluorophenyl)phenylester].hydrochloride] | 0.78 | 1.56 | >25 | – | – | – | –
